Here are results for 15 molecules from PubChem BioAssay (NCI).

The structures appear in SMILES notation.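 Grown in 96-well plates, cells were treated for 48 hours with each compound at five concentrations. Insufficient inhibition: endpoint recorded as highest concentration tested. GI50 = concentration required for 50% inhibition of growth. The concentration for full growth arrest is given as TGI.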

Common to all, as to assay: inhibition of tumour cell growth, NCI panel, 48 h
Test [1] has as its system KM12 colon.
Test [2] deals with MCF7 breast.
The test system of test [3] is UACC-62 melanoma.
For test [4], the system named is SK-OV-3 ovarian.
The test system of test [5] is SF-295 CNS.
Test [6] concerns CAKI-1 renal.
Test [7] deals with CCRF-CEM leukemia.
In test [8] the test system is PC-3 prostate.
Test [9] concerns UO-31 renal.
Test [10] concerns A549 NSCLC.

For `C[As](C)Sc1ccnc(S[As](C)C)n1`, the GI50 in test [1] is 9.52 µM; in [2] it was 3.23 µM; in test [3], 2.38 µM; in test [4], 12.4 µM; in [5], 27.2 µM; in test [6] it was 4.35 µM. The GI50 in [7] was 1.34 µM; in test [8] it was 3.14 µM; in test [9], 3.73 µM; in test [10], 8.51 µM. The TGI in [1] was above 51.9 µM; in test [2], above 35.1 µM; in [3], 15.6 µM; in [4] it was above 100 µM; in [5] it was above 59.2 µM; in test [6], 22.9 µM. Also, the TGI is 30.8 µM in [8], 26.9 µM in test [9] and above 41.7 µM in [10].
`O=C(O)c1cc(N/C=C2\C(=O)c3ccccc3OC2O)ccc1O` (stereo not drawn): the GI50 in test [1] was 25.7 mg/L; in test [2], 24.1 mg/L; in test [3], 15.6 mg/L; in test [4], 29.3 mg/L; in test [5] it was 18.1 mg/L; in test [6] it was 13 mg/L. The GI50 in test [7] was 9.75 mg/L; in test [8], 29.4 mg/L; in [9] it was 10.1 mg/L; in test [10] it was 53.7 mg/L. Moreover, the TGI in test [1] amounted to 51.6 mg/L; in test [2], 115 mg/L; in [3], 62.8 mg/L; in test [4], 75.1 mg/L; in test [5] it was 52.8 mg/L; in test [6] it was 42 mg/L. In addition, the TGI in [7] is 44.2 mg/L; in [8], 120 mg/L; in test [9], 46.2 mg/L; in [10], above 150 mg/L.
Consider `COc1cc(C(=O)NC2CCN(C)CC2)ccc1Nc1ncc2c(n1)N(C1CCCC1)CC(F)(F)C(=O)N2C`, for which the GI50 in [1] was below 0.01 µM; in test [2], below 0.01 µM; in [3] it was below 0.0246 µM; in [4], below 0.0133 µM; in test [5], 0.0491 µM; in [6] it was 1.86 µM. Further, the GI50 was below 0.01 µM in test [7], below 0.0249 µM in test [8], 1.66 µM in test [9] and below 0.0193 µM in test [10]. In addition, the TGI in [1] was 14.1 µM; in test [2], 10.5 µM; in test [3], 5.84 µM; in test [4], 0.761 µM; in [5], 3.51 µM; in test [6] it was 12.2 µM. The TGI in test [7] was determined as 12.2 µM; in test [8] it was 21.4 µM; in test [9], 12.9 µM; in test [10] it was 4.38 µM.
Take `Fc1ccc(CNc2c3ccccc3nc3ccccc23)cc1`: the GI50 was 3.27 µM in test [1]; 1.79 µM in test [2]; 2.58 µM in test [3]; 2.56 µM in [4]; 2.9 µM in [5]; 1.46 µM in test [6]. The GI50 in test [7] was 3.12 µM; in test [8], 3.11 µM; in [9], 1.2 µM; in test [10], 2.84 µM. The TGI was found to be 13.6 µM in [1]; 4.97 µM in [2]; 9.13 µM in test [3]; 10.1 µM in [4]; 11.1 µM in test [5]; 3.8 µM in test [6]. Also, the TGI in test [7] was above 100 µM; in test [8], 16.8 µM; in test [9], 4.14 µM; in [10] it was 10.8 µM.
Take `CN(CCCCCl)P(=O)(OCc1ccc([N+](=O)[O-])o1)C(F)(F)c1ccc(CC(=O)N[C@@H](CC(=O)O)C(=O)N[C@@H](Cc2ccc(C(F)(F)P(=O)(OCc3ccc([N+](=O)[O-])o3)N(C)CCCCCl)cc2)C(N)=O)cc1` (stereo partly drawn): the GI50 is 43 µM in test [1]; 32.8 µM in test [2]; 58 µM in test [3]; above 100 µM in test [4]; above 100 µM in [5]; above 100 µM in [6]. Moreover, the GI50 in test [7] was 30.2 µM; in [8], 80.5 µM; in [9] it was above 100 µM; in test [10] it was above 100 µM. The TGI in test [1], in test [2], in test [3], in test [4], in [5] and in test [6] was above 100 µM throughout. The TGI in [7], in test [8], in [9] and in [10] was above 100 µM each time.
With `COc1ccccc1CNCCCN1C(=O)c2ccc3c4c(ccc(c24)C1=O)C(=O)N(CCCNCCCCNCCCCN)C3=O`, the GI50 was 2.42 µM in test [1]; 0.498 µM in test [2]; 1.53 µM in test [3]; 2.82 µM in test [4]; 2.63 µM in test [5]; 3.98 µM in test [6]. Besides, the GI50 in test [7] was 0.756 µM; in test [8], 2.5 µM; in test [9] it was 3.44 µM; in test [10] it was 2.3 µM. For the same molecule, the TGI in test [1] was 6.91 µM; in test [2], 2.24 µM; in test [3], 3.66 µM; in [4], 14.1 µM; in test [5], 11 µM; in [6], 46 µM. Besides, the TGI in test [7] is above 33.4 µM; in [8], 10.3 µM; in [9], above 67.3 µM; in test [10], 7 µM.
In the case of `Nc1ncnc2c1c(-c1cccc(OCc3ccccc3)c1)cn2C1CC(CN2CCCC2)C1` (stereo not drawn), the GI50 in [1] is 1.93 µM; in [2] it was 0.141 µM; in test [3], 1.84 µM; in test [4] it was 2.44 µM; in test [5] it was 1.9 µM; in test [6], 2.08 µM. In addition, the GI50 is 2.51 µM in test [7], 2.5 µM in [8], 1.28 µM in test [9] and 0.939 µM in [10]. The TGI in test [1] came to 4.26 µM; in test [2], 2 µM; in test [3], 3.78 µM; in test [4] it was 5.85 µM; in test [5], 3.87 µM; in test [6] it was 9.27 µM. For the same molecule, the TGI was found to be 6.66 µM in test [7], 10.4 µM in test [8], 3.61 µM in test [9] and 7.17 µM in test [10].
On to `O=C1Nc2cc(Cl)ccc2Oc2cc(Oc3ccccc3)ccc21`, for which the GI50 in [1] is 2.09 µM; in [2], 3.39 µM; in test [3], 4.15 µM; in test [4], 4.66 µM; in [5], 3.64 µM; in test [6], 3.81 µM. The GI50 was 3.24 µM in [7], 4.85 µM in test [8], 6.52 µM in [9] and 4.66 µM in test [10]. For the same molecule, the TGI in [1] was 14 µM; in [2], 18.3 µM; in [3] it was 91.3 µM; in [4], 17.4 µM; in test [5], 18.5 µM; in test [6], 38.8 µM. Moreover, the TGI in test [7] is above 100 µM; in test [8] it was 48.4 µM; in test [9], above 100 µM; in test [10], 33.8 µM.
Regarding `O=C(/C=C/c1ccccn1)c1ccccc1O`, the GI50 in [1] was 1.55 µM; in [2], 2.47 µM; in test [3], 1.82 µM; in test [4], 5.54 µM; in test [5], 2.23 µM; in test [6], 1.58 µM. Also, the GI50 in [7] is 1.71 µM; in [8] it was 2.92 µM; in [9], 1.31 µM; in [10] it was 5.37 µM. Besides, the TGI amounted to 3.04 µM in test [1]; 10.4 µM in test [2]; 3.87 µM in [3]; 17.9 µM in test [4]; 4.67 µM in test [5]; 3.21 µM in [6]. For the same molecule, the TGI in test [7] stood at 5.43 µM; in test [8] it was 8.29 µM; in test [9] it was 2.6 µM; in test [10] it was 20.4 µM.
Regarding `O=C1Nc2ccccc2C1(c1ccc(O)c(F)c1)c1ccc(O)c(F)c1`, the GI50 was 3.07 µM in test [1]; 0.27 µM in test [2]; 10.2 µM in test [3]; 21.1 µM in test [4]; 12.5 µM in test [5]; 17.6 µM in test [6]. Also, the GI50 in test [7] was 17.8 µM; in [8] it was 1.08 µM; in test [9], 11.9 µM; in test [10], 19.1 µM. Besides, the TGI in test [1] was determined as 22.9 µM; in test [2] it was 2.81 µM; in test [3], 33.7 µM; in test [4], 52 µM; in test [5], 28.5 µM; in test [6], 55.4 µM. The TGI in test [7] stood at 73.3 µM; in test [8], 6.95 µM; in test [9] it was 42.8 µM; in [10], 81.8 µM.
Consider `O=S(=O)(O)c1ccc(Cl)cc1.[Cd]`, for which the GI50 in test [1] was 73.4 µM; in [2], 34.6 µM; in test [3], 13.8 µM; in test [4], above 100 µM; in test [5], above 100 µM; in test [6] it was 36 µM. In addition, the GI50 in [7] was 24.9 µM; in test [8], 25.2 µM; in [9], above 100 µM; in [10], above 100 µM. Also, the TGI in [1] was above 100 µM; in [2], above 100 µM; in [3], 28 µM; in test [4], above 100 µM; in [5], above 100 µM; in test [6], above 100 µM. Moreover, the TGI in test [7] is 85.4 µM; in test [8], 66.3 µM; in [9] it was above 100 µM; in test [10], above 100 µM.
As for `Fc1ccc(-c2ncn(C3CCNCC3)c2-c2ccnc(Oc3ccccc3)n2)cc1`, the GI50 was above 25 µM in test [1]; 9.3 µM in test [2]; above 25 µM in test [3]; 20.1 µM in [4]; 18.2 µM in [5]; 18.4 µM in test [6]. The GI50 was above 23.3 µM in test [7], above 25 µM in test [8], 7.72 µM in test [9] and 20.1 µM in test [10]. The TGI in [1], in [2], in [3], in test [4], in [5] and in test [6] was above 25 µM throughout. The TGI in test [7], in [8], in test [9] and in test [10] was above 25 µM in each case.
In the case of `O=C1CSC(=S)N1c1ccc(F)cc1F`, the TGI in test [1] is above 100 µM; in [2], 51.5 µM; in [3] it was above 100 µM; in test [4], above 100 µM; in [5], above 100 µM; in test [6] it was above 100 µM. Also, the TGI in [7] is 76.4 µM; in [8], above 100 µM; in [9] it was above 100 µM; in test [10] it was above 100 µM.
Regarding `Cn1cc(C2=C(c3c4n(c5ccccc35)CC(CN)C4)C(=O)NC2=O)c2ccccc21` (stereo not drawn), the GI50 is 3.46 µM in test [1]; 1.4 µM in [2]; 3.3 µM in [3]; 1.93 µM in [4]; 3.54 µM in [5]; 3.37 µM in [6]. Also, the GI50 was 4.82 µM in test [7], 2.04 µM in [8], 2.83 µM in test [9] and 3.74 µM in [10]. Moreover, the TGI in test [1] amounted to 9.22 µM; in test [2], 4.85 µM; in [3], 6.76 µM; in test [4], 14.7 µM; in test [5] it was 8.56 µM; in [6], 9.51 µM. For the same molecule, the TGI was found to be 25 µM in test [7], 9.01 µM in test [8], 8.27 µM in test [9] and 10.9 µM in test [10].
`CCOC(=O)C1c2[nH]c3ccccc3c2CCN1C(=O)c1ccco1` (stereo not drawn): the TGI in test [1], in [2], in [3], in test [4], in test [5] and in test [6] was above 10 µM each time. Besides, the TGI in [7], in test [8] and in [10] was above 10 µM each time.
